According to PubChem BioAssay AID179 (DTP/NCI, 2004):
The source made the active and inactive calls.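 The calls were made as follows: active = compounds giving half or more protection of infected cells from virus-caused growth loss, again on retest; inactive = the rest.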 Where a SMILES comes first, the peptide text is derived from it.

Test system: CEM cells HIV-1 protection, formazan growth assay
Experiment: NCI AIDS Antiviral Assay
Conditions: for IC50: measured here: growth of uninfected CEM cells
Method in brief: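 Protection of CEM cells against HIV-1 was scored from cell growth (soluble formazan) across five concentrations, with parallel uninfected cells. Lack of protection may reflect toxicity.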

| SMILES | EC50 [µM] | IC50 [µM] | outcome |
| --- | --- | --- | --- |
| C=C1C(OC)O[C@@H]2O[C@@]3(C)CC[C@H]4[C@H](C)CC[C@@H]1[C@@]24O3 (stereo partly drawn) | > 200 | > 200 |  |
| Cc1nccc2c(C(=O)O)c(C(=O)O)[nH]c12 | > 170 | > 170 |  |
| N.N.N.N.O=C([O-])O.O=C([O-])[O-].[Co+3] |  |  | inactive |
| COc1ccc(-c2ncnc(-c3ccc(OC)c(OC)c3)n2)cc1OC | > 100 | > 100 |  |
| Cc1cc(N=O)ccc1O | > 200 | 3.63 |  |
| COc1cc2c(c(OC)c1OC)[C@@H]1CCCCC[C@@H]1CCC2=O | > 251 | 112 |  |
| CCNC(=O)OCCCCC=C(c1cc(Cl)c(OC)c(C(=O)OC)c1)c1cc(Cl)c(OC)c(C(=O)OC)c1 | > 200 | 14.5 |  |
| O=S(=O)(c1ccccc1)C1(CCC2OCCO2)C=CC2(CC1)OCCO2 (stereo not drawn) | > 200 | > 200 |  |
| CC1(C)C(=NNC(=S)NN)C(C)(C)C1=NNC(=S)NN | > 794 | 151 |  |
| Cc1ccc(-n2c(N)c(C#N)c3c(c2=S)CCC3)cc1 | > 129 | > 129 |  |
| O=Nc1c(-c2ccccc2)nnc(-c2ccccc2)c1N=O | > 9.33 | > 9.33 |  |
| O=C1c2c(ccc3c2CCC3)CC12Cc1cc3c(cc1C2)CCC3 | > 200 | > 200 |  |
| CS/C1=C(\c2ccc(C)cc2)N(c2ccccc2)C(=O)C(=O)N(c2ccccc2)/C(c2ccc(C)cc2)=C(/SC)SS1 | > 200 | 47.9 |  |
| COc1cc(C2C(Cl)C(=O)N2NC(=O)c2ccccc2O)cc(OC)c1OC (stereo not drawn) | > 45.7 | 3.98 |  |
| Clc1ccc2c(SCC3CO3)c3ccccc3nc2c1 (stereo not drawn) | > 200 | 2.57 |  |
| CCOP(=O)(OCC)/C(C#N)=C/c1ccco1 | 69.2 | > 200 |  |
| CC(O)C(=O)[O][Pb]([CH3])([CH3])[CH3] (stereo not drawn) | > 200 | > 200 |  |
| Cc1cccc(C)c1NC(=O)C(=O)C(c1ccccc1Cl)S(=O)(=O)Cc1ccccc1Cl (stereo not drawn) | 151 | > 200 |  |
| CCOC(=O)CNC(=O)c1ccccc1SC(=O)CCCC[n+]1ccccc1 | > 20 | 0.363 |  |
| CC1CCCN2C(=O)CN(c3ccccc3)CC(=O)N12 (stereo not drawn) | > 200 | > 200 |  |
| COc1ccc(-c2nc3c(=O)n(C)c(=O)n(C)c3nc2-c2ccc(OC)cc2)cc1 | > 200 | 195 |  |

| SMILES | EC50 [µM] | IC50 [µM] | outcome |
| --- | --- | --- | --- |
| COc1ccc(CCCNC(=O)Cc2ccccc2CO)cc1OC | > 200 | > 200 |  |
| Cn1c(=O)cc(NNc2ccccc2)[nH]c1=O | > 200 | 3.09 |  |
| COc1ccc(C(=O)CC2(O)C(=O)N(CN3CCOCC3)c3ccc(Br)cc32)cc1 (stereo not drawn) | > 123 | 105 |  |
| COC(=O)C1(C(=O)OC)CC(=O)c2c(OC(=O)c3cccc(OC)c3C#N)ccc(OC(=O)c3cccc(OC)c3C#N)c2C1 | > 200 | 29.5 |  |
| CC1(O)Cn2c(nc3nccnc32)S1 (stereo not drawn) | > 603 | 31.6 |  |
| CCOC(=O)C(=C=Cc1cccs1)C(=O)c1ccccc1 | > 120 | 53.7 |  |
| COc1ccc2cc(C(=O)NCCc3ccccc3)ccc2c1OC | > 200 | > 200 |  |
| CCOC(=O)[C@H](Cc1ccccc1)NC(=O)c1nc[nH]c1[N+](=O)[O-] | > 537 | 372 |  |
| CN1C/C(=C\C=C\c2ccccc2)C(=O)/C(=C/C=C/c2ccccc2)C1 | > 7.24 | > 7.24 |  |
| CC(C)CC(N)C(=O)NC(Cc1cnc[nH]1)C(=O)NC(CC(N)=O)C(=O)NC(C(=O)NC(CO)C(=O)NC(Cc1ccc(O)cc1)C(=O)NC(CO)C(=O)NC(C)C(=O)NC(CCCCN)C(=O)NC(CC(=O)O)C(=O)NC(CC(C)C)C(=O)O)C(C)O (stereo not drawn) (H-LHNTSYSAKDL-OH; configuration not given here) | > 50.1 | > 50.1 |  |
| COc1ccc(C2(c3ccc(OC)cc3)N=NC3(C)CC32)cc1 (stereo not drawn) | > 91.2 | 89.1 |  |
| C(/C=C\c1ccccc1)=Nc1ccccc1 | > 34.7 | > 34.7 |  |
| Nc1ccn(C2CCC(CO)O2)c(=O)n1 (stereo not drawn) | 4.68 | 13.5 |  |
| CCCN1CN(C(C(=O)N[C@@H]2C(=O)N3C2SC(C)(C)C3C(=O)O)c2ccc(O)cc2)CSC1=S (stereo partly drawn) | > 479 | 145 |  |
| CCCCCCCCCCCCCCCC1(OC)C[N+](C)(C)CCO1 (stereo not drawn) | > 200 | 1 |  |
| O=[N+]([O-])c1ccc2nc(/C=C(\O)c3ccccc3)c(/C=C(\O)c3ccccc3)nc2c1 | > 200 | 20 |  |
| CC(C)N(O)C(=N)c1ccccc1 |  |  | inactive |
| O=C(CSc1nnc(-c2ccc(N=Cc3ccc(Cl)cc3)cc2)o1)Nc1ccccc1 | > 112 | 42.7 |  |
| CCOC(=O)N/N=C(\CC)NO | > 200 | > 200 |  |
| C[N+]12CC3C4CC(C3C1)C2C4 (stereo not drawn) | > 912 | > 912 |  |
| NC(=S)N/N=C(\CCC(=O)Nc1ccccc1[N+](=O)[O-])CC(=O)c1ccco1 | > 234 | > 234 |  |

| SMILES | EC50 [µM] | IC50 [µM] | outcome |
| --- | --- | --- | --- |
| CCOC(CCCN1CCC2(CC1)C(=O)N(C)CN2c1ccccc1)(OCC)c1ccc(F)cc1 | > 200 | 15.1 |  |
| CN1CCC2(CC1)SSC1(CCN(C)CC1)S2 | > 200 | 191 |  |
| CCN(CC)CCN.O=c1cccccc1[O-].O=c1cccccc1[O-].[Co+3].[O-][Cl+3]([O-])([O-])[O-] | > 200 | 2.24 |  |
| C1CCC(N([P-]P([P-]N(C2CCCCC2)C2CCCCC2)N(C2CCCCC2)C2CCCCC2)C2CCCCC2)CC1.[C-]#[O+].[C-]#[O+].[C-]#[O+].[C-]#[O+].[C-]#[O+].[C-]#[O+].[Fe].[Fe] (stereo not drawn) | > 0.603 | > 0.603 |  |
| Nc1ncnc2c1ncn2C1CCC(=O)C1 (stereo not drawn) | > 1150 | 174 |  |
| CC(C#N)NCc1ccccc1 (stereo not drawn) |  |  | inactive |
| CC(C)CC(N)C(=O)NC(CC(=O)O)C(=O)NC(CCCCN)C(=O)NC(C)C(=O)NC(CO)C(=O)NC(Cc1ccc(O)cc1)C(=O)NC(CO)C(=O)NC(C(=O)O)C(C)O (stereo not drawn) (H-LDKASYST-OH; configuration not given here) | > 56.2 | > 56.2 |  |
| Cc1cc2ccccc2n1CC(=O)N1CCCC1 | > 200 | > 200 |  |
| Cc1cc2nnn(C3CCCCO3)c2cc1C (stereo not drawn) | > 200 | 174 |  |
| CC(NC(=O)C(N)CC(=O)O)C(=O)OC12CC3CC(CC(C3)C1)C2 (stereo not drawn) | > 200 | > 200 |  |
| Cc1cc2[nH]c3c(C#N)c4c(c(=O)n3c2cc1C)CCCC4 | > 200 | > 200 |  |
| COC(=O)C1(Cc2ccc3c(c2)CCC3)Cc2ccccc2C1 | > 200 | 35.5 |  |
| O=C(Nc1ccc(Cl)cc1)c1cc2cc(N=Nc3ccc(Br)cc3)ccc2oc1=O |  |  | inactive |
| N#Cc1nc(/C=C/c2cccnc2)oc1N | > 200 | > 200 |  |
| Nc1nc(N)c(-c2ccc(Cl)cc2)c(CCC(=O)Nc2cccc(C(F)(F)F)c2)n1 | > 12 | > 12 |  |
| O=c1c(SCc2ccc(Cl)cc2)c(SCc2ccc(Cl)cc2)cnn1-c1ccccc1 | > 14.8 | 3.98 |  |
| CC(=O)Oc1cc2c(c3ncccc13)OC(C)(C)C2 | > 200 | 11 |  |
| O=[N+]([O-])c1ccc(N=Cc2ccccc2O)cc1 | > 200 | 8.91 |  |
| COc1ccc2nc3cc(Cl)ccc3c(Nc3ccccc3-c3ccccc3Nc3c4ccc(Cl)cc4nc4ccc(OC)cc34)c2c1 | > 4.07 | > 4.07 |  |
